# Measurements reported in ChEMBL document CHEMBL1201862, “PubChem BioAssay data set” (2004).
# Activity calls are given as the source filed them.
# Experiments:
# [1] = A High Throughput Confirmatory Assay used to Identify Novel Compounds that Inhibit Mycobacterium Tuberculosis in the absence of Glycerol.; format: functional
# [2] = biological target: Mannose-6-phosphate isomerase (Homo sapiens, UniProt P34949); assay: MPI enzyme activity inhibition – biochemical, fluorescence intensity, coupled assay, primary screen (AID 1209)
# Vero = assay: viability of Vero cells under compound – cytotoxicity control for flavivirus capping enzyme inhibitors (AID 588742); format: functional; conditions: Chlorocebus sabaeus
# cells [3] = format: functional, cell-based
# [4] = Trypanosoma cruzi growth suppression in host cells – NIH3T3 host cells, beta-gal luminescence, confirmation (AID 2044); format: functional, cell-based;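 also: intracellular parasites grown in NIH/3T3 mouse fibroblasts as host cells; luminescent beta-galactosidase reporter signal from transgenic T. cruzi replicating inside host cells; inhibitors lower the luminescence signal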
# cells [5] = format: functional, cell-based; remark: listed apart in the source
# [6] = NIH3T3 cell viability loss – ATP luminescence, mouse fibroblasts, counter-screen, dose response (AID 2010); format: functional, cell-based;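 also: cells exposed to compound for about 90 hours before reading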
# [7] = ATP-based viability loss in HEK293T cells – cell-based, CellTiter-Glo luminescence, dry powder, set 2, cytotoxicity control, dose response (AID 720595); format: functional; conditions: HEK293
# [8] = ATP-based viability loss in HeLa cells – cell-based, CellTiter-Glo luminescence, dry powder, set 2, cytotoxicity control, dose response (AID 720593); format: functional
# [9] = viability loss in HepG2 hepatoma cells – cell-based, ATP luminescence, cherry-pick, activator set 2, cytotoxicity control, dose response (AID 1053143); format: functional
# ELAV-like protein 1 = ELAV-like protein 1 (Homo sapiens, UniProt Q15717); assay: Identify HuR specific inhibitors.; format: functional
# BJ [10] = assay: BJ-TERT fibroblast viability loss – cell-based, RAS-independent, luminescence, dose response (AID 1933); format: functional; conditions: Homo sapiens
# BJ [11] = assay: cells; format: functional, cell-based; conditions: Homo sapiens
# [12] = biological target: Heat shock protein HSP 90-alpha (Homo sapiens, UniProt P07900); assay: Luminescence-based dose response biochemical high throughput screening assay for inhibitors of the Heat Shock Protein 90 (HSP90). [Related pubchem assays: 1831 (Summary AID.), 1846 (Confirmation screen.), 1789 (Primary screen.)]
# BJ [13] = assay: BJ-TERT-LT-ST fibroblast viability loss – cell-based, RAS-independent, luminescence, dose response (AID 1935); format: functional; conditions: Homo sapiens;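 also: BJ fibroblasts immortalized with TERT plus LT and ST oncogenes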
# [14] = DRD fibroblast viability loss – cell-based, non-viral oncogenic, luminescence, dose response (AID 1934); format: functional; conditions: Homo sapiens
# BJ [15] = assay: growth inhibition of engineered Ras-driven BJ cells – cell-based, alamar blue fluorescence, cherrypicked samples, dose response (AID 2631); format: functional; conditions: Homo sapiens;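 also: confirmatory dose-response assay in RAS-dependent BJ fibroblasts engineered with TERT, LT and ST, with cytotoxicity read by fluorescence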
# [16] = viability loss in A549 lung cells – cell-based, 24 h, CellTiter-Glo luminescence, cherry-picks, cytotoxicity control, dose response (AID 1053115); format: functional; conditions: A549, 24 h
# [17] = YAP1 overexpression rescue of CTGF inhibition – DLD1 cells, RT-qPCR, cherry-pick, mechanism study for YAP1 pathway inhibitor project, dose response (AID 1053127); format: functional, cell-based; conditions: DLD-1
# [18] = growth inhibition of yeast DHODH-expressing 3D7 parasites – SYBR Green, dry powder samples, dose response (AID 1159570); format: functional, cell-based;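 also: parasite growth measured after 72 hours of compound exposure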
# [19] = P. falciparum Dd2 growth inhibitors, dose response, SYBR Green, cherry-picked samples (AID 1159567); format: functional, cell-based
# [20] = Dd2 malaria parasite growth inhibition potency – SYBR Green, dry powder samples, dose response (AID 1159566); format: functional, cell-based;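 also: potency for growth inhibition with lower SYBR green DNA signal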
# [21] = toxicity to human hepatoma HepG2 cells – cell-based, cherry-picked samples, cytotoxicity control, dose response (AID 1159577); format: functional
# [22] = Plasmodium falciparum Dd2 Sybr green parasite growth Measured in Cell-Based and Microorganism Combination System Using Plate Reader - 2153-01_Inhibitor_Dose_DryPowder_Activity_Set10.; format: functional
# [23] = growth inhibition of PfATP4-mutant resistant parasites – NITD609-resistant line, SYBR Green, dry powder, dose response (AID 1159571); format: functional, cell-based;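 also: parasites synchronized at ring stage by sorbitol before testing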
# [24] = rise of 2N DNA cells, HeLa – IC50, dose response (AID 1117349); format: functional, cell-based
# [25] = RKO cell viability reduction, dose response, CellTiter-Glo luminescence (AID 1117322); format: functional
# [26] = cytotoxicity toward HCT116 cells – cell-based, CellTiter-Glo luminescence, IC50, dose response (AID 1117332); format: functional; conditions: HCT-116
# [27] = SNU-C1 cell viability reduction, dose response, CellTiter-Glo luminescence (AID 1117323); format: functional, cell-based
# [28] = rise of 4N DNA cells, HeLa – IC50, dose response (AID 1117351); format: functional, cell-based
# [29] = cytotoxicity toward HT-29 cells – cell-based, CellTiter-Glo luminescence, IC50, dose response (AID 1117330); format: functional
# [30] = Reduced DLD-1 viability, concentration-response, CellTiter-Glo luminescence (AID 1117352); format: functional
# [31] = HCT116 cell viability decrease, GSK3B pretreatment – CellTiter-Glo, IC50, dose response (AID 1117339); format: functional; conditions: HCT-116
# [32] = biological target: Bifunctional protein GlmU (Mycobacterium tuberculosis, UniProt P9WMN3); assay: Inhibitors of Mycobacterial Glucosamine-1-phosphate acetyl transferase (GlmU). Secondary screen.; design: species or system Mycobacterium tuberculosis H37Rv
# [33] = biological target: Induced myeloid leukemia cell differentiation protein Mcl-1 (Homo sapiens, UniProt Q07820); format: functional
# Sequence of Induced myeloid leukemia cell differentiation protein Mcl-1 (Q07820 whole entry): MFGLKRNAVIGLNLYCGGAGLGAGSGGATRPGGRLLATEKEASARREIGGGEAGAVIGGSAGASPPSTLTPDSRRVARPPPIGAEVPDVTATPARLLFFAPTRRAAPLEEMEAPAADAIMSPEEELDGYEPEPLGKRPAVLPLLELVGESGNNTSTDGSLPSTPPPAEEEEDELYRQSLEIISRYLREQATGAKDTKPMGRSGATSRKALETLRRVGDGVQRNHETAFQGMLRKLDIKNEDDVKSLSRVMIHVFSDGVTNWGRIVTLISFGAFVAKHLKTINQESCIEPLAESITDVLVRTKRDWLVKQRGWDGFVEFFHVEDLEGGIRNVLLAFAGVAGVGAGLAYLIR
# Sequence of ELAV-like protein 1 (Q15717 whole entry): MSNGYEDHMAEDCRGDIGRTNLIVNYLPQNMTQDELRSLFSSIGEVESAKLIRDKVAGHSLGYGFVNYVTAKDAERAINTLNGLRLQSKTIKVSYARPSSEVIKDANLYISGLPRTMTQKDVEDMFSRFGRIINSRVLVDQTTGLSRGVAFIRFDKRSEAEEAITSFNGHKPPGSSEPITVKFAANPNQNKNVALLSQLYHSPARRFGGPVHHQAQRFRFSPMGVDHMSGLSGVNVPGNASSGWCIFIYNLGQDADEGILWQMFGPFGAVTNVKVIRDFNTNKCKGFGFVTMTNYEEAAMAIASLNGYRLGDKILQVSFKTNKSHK
# Sequence of Mannose-6-phosphate isomerase (P34949 whole entry): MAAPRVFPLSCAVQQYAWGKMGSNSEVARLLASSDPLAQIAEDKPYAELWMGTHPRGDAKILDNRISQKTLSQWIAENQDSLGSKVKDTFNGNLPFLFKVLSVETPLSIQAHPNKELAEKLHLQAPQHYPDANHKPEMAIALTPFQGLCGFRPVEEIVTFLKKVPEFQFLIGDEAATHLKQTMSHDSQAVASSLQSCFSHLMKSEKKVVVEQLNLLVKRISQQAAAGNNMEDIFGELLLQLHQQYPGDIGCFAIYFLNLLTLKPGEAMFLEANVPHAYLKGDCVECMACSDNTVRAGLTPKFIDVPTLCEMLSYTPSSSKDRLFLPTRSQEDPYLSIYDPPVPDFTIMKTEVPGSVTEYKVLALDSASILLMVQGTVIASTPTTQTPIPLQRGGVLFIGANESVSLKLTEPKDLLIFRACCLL
# Sequence of Bifunctional protein GlmU (P9WMN3 whole entry): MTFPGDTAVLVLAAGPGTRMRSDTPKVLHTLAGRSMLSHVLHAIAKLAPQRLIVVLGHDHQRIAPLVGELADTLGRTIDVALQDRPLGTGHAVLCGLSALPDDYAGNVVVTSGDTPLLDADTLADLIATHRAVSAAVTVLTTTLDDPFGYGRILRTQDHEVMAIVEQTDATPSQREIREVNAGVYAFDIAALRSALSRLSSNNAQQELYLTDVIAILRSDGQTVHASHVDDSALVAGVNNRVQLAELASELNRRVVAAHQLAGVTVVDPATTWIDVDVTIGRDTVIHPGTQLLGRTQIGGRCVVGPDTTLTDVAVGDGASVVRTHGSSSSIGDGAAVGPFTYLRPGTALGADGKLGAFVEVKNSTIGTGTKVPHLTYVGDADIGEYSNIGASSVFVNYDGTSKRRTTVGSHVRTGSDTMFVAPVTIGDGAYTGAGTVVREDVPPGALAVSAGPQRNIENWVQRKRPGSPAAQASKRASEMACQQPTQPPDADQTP
structure (smiles),measurement,setting,value
CC(C)OC(=O)c1ccc(NC(=S)NC(=O)c2cncc(Br)c2)cc1,IC50,[1],> 100 µM (active)
CC(=O)Oc1ccc2c(=O)c(Oc3ccccc3)c(C)oc2c1OC(C)=O,IC50,[2],44.8 µM (active)
same,CC50,Vero,38.1 µM (active)
CCc1cc2c(O)nc(-c3ccccn3)nc2s1,EC50,cells [3],> 350 µM (not active)
same,EC50,[4],1.38 µM (active)
same,EC50,cells [5],28.8 µM (active)
same,EC50,[6],2.45 µM (active)
same,AC50,[7],34.5 µM (active)
same,AC50,[8],24.1 µM (active)
same,AC50,[9],14.2 µM (active)
CC1=CC(C)(C)N=C(S)N1c1cccc2cc(S(=O)(=O)O)ccc12,IC50,ELAV-like protein 1,14.7 µM (inactive)
CNC(=S)N/N=C/c1ccc(-c2ccc(C(=O)O)cc2)o1,EC50,BJ [10],4.2 µM (active)
same,EC50,BJ [11],5.08 µM (active)
same,IC50,[12],8.05 µM (active)
same,EC50,BJ [13],17 µM (active)
same,EC50,[14],5.6 µM (active)
same,EC50,BJ [15],> 133 µM (inactive)
COc1ccccc1CN1CC[C@@H]2[C@@H](CO)Nc3ccc(C#Cc4ccccc4)cc3[C@@H]21,AC50,[16],> 60 µM (inactive)
CC(C)(C)[S@@+]([O-])N1Cc2cc(C(=O)NCCc3ccncc3)nc(-c3cccc(-c4cccc(C#N)c4)c3)c2[C@H]1CCO,AC50,[17],0.498 µM (active)
COc1ccc(-c2ccccc2[C@H]2[C@@H](C#N)N(C(=O)C3CCCC3)[C@@H]2CO)cc1,AC50,[18],0.69 µM (active)
same,AC50,[19],1.34 µM (active)
same,AC50,[20],0.717 µM (active)
same,AC50,[21],> 42 µM (inactive)
same,AC50,[22],0.867 µM (active)
same,AC50,[23],2.54 µM (active)
CC(C)C[C@H](NC(=O)[C@H](CCc1ccccc1)NC(=O)CN1CCOCC1)C(=O)N[C@@H](Cc1ccccc1)C(=O)N[C@@H](CC(C)C)C(=O)[C@@]1(C)CO1 [CARFILZOMIB],IC50,[24],> 10 µM (inactive)
same,IC50,[25],0.00394 µM (active)
same,IC50,[26],0.00558 µM (active)
same,IC50,[27],0.00147 µM (active)
same,IC50,[28],> 10 µM (inactive)
same,IC50,[29],0.00318 µM (active)
same,IC50,[30],0.00696 µM (active)
same,IC50,[31],0.00173 µM (active)
O=C(/C=C/c1ccc(O)c(O)c1)O[C@H](Cc1ccc(O)c(O)c1)C(=O)O [ROSMARINIC ACID],IC50,[32],84.9 µM (active)
same,IC50,[33],2.03 µM (active)
